Experimental data published in patent US6326395A, “Antifungal activity of dicationic molecules” (priority 1999, dated 2001).
≈ marks a conversion by molar mass, not a printed value. Counter-ions that a name gives are not always drawn. Like-named read-outs stand apart in the source and are kept apart here.

Key:
Candida albicans = assay: in vitro antifungal susceptibility testing (MIC, MFC; broth macrodilution), Tables 1-7; type: cell-based; conditions: for MIC: read-out: MIC80 (Minimum inhibitory concentration 80%); for MFC: read-out: MFC (Minimum fungicidal concentration)
From the text: (§1) The fungi that were employed included two reference strains, C. neoformans var. neoformans H99 and C. albicans A39 and the following clinical isolates: (1) two strains of fluconazole-resistant C. neoformans var. neoformans (135.95 and 114.96); (2) two strains of C. neoformans var. gattii (119.95 and 114.95); (3) two strains of fluconazole-resistant C. albicans (102.96 and 103.96); and (4) one strain each of Torulopsis glabrata (142.91), Candida parapsilosis (111.96), Candida krusei (132.91), C. tropicalis (110.96), Candida lusitaniae (111.92), Fusarium solani (152.89), Aspergillus fumigatus (168.95), and Aspergillus flavus (112.96). Antifungal susceptibility testing was performed using an RPMI-1640 medium (Sigma Chemical Co., St. Louis, Mo.) with glutamine, without sodium bicarbonate, and buffered at pH 7.0 with 0.165 M morpholine-propanesulfonic acid (MOPS).
(§2) In vitro susceptibility testing in the form of Minimum Inhibitory Concentration (MIC) experiments were performed using the broth macrodilution method according to the recommendations of the National Committee for Clinical Laboratory Standards (see 1995 manual). The only difference compared to the standardized procedure was the choice of drug dilutions ranging from 100 to 0.09 μg/ml. Briefly, this procedure specifies an inoculum grown at 35° C. and adjusted to a concentration of 0.5-2.5×10^3 CFU/ml with an incubation of the test performed at 35° C. and reading at 48 hours for all yeasts except for C. neoformans which is interpreted at 72 hr.
(§3) Minimum Fungicidal Concentration (MFC) experiments were adapted from a method by McGinnis (McGinnis, M. R., (1980) "Susceptibility testing and bioassay procedure", p. 431, Academic Press, Inc., New York). Briefly, 10 μl aliquots from tubes with growth inhibition were plated onto Sabouraud agar plates.
(§4) The fungi that were employed included two quality control reference strains, C. neoformans var. neoformansH99 and C. albicans A39 and the following clinical isolates: (1) four strains of C. neoformans var. neoformans (167.95; 135.95; 114.96; and 133.95) of which three were fluconazole-resistant>64 μg/ml (135.95; 114.96; and 133.95); (2) two strains of C. neoformans var. gattii (119.95 and 114.95); (3) two strains of fluconazole-resistant>64 μg/ml C. albicans (102.96 and 103.96); and (4) one strain each of C. glabrata (142.91), Candida parapsilosis (111.96), Candida krusei (132.91), C. tropicalis (110.96), Candida lusitaniae (111.92), Fusarium solani (152.89), Aspergillus fumigatus (168.95), Rhizopus arrhizus (117.89), Paecilomyces lilacinus (137.90), and Aspergillus flavus (112.96). Antifungal susceptibility testing was performed using an RPMI-1640 medium (Sigma Chemical Co., St. Louis, Mo.) with glutamine, without sodium bicarbonate, and buffered at pH 7.0 with 0.165 M morpholinepropanesulfonic acid (MOPS).
as §3, with “p.431,” for “p. 431,”

Cryptococcus neoformans = assay: as above; type: cell-based; conditions: for MIC: read-out: MIC80 (Minimum inhibitory concentration 80%); for MFC: read-out: MFC (Minimum fungicidal concentration)
From the text: as §1, §2, §3, §4
as §3, with “p.431,” for “p. 431,”

Candida albicans A39 = assay: antifungal susceptibility testing (MIC, MFC), extended spectrum; type: cell-based; conditions: Candida albicans, A39, read-out: MICs
From the text: as §1, with “Antifungal susceptibility testing for compounds set forth in Examples 1-20 is discussed hereinbelow. The” for “The”
as §2
as §3, with “plates. The lowest drug concentration that yielded three or fewer yeasts colonies was recorded as the MFC.” for “plates.”
(§5) Antifungal susceptibility testing for compounds set forth in Examples 21-28 is discussed hereinbelow. […]
(§6) Minimum Fungicidal Concentration (MFC) experiments were adapted from a method by McGinnis (McGinnis, M. R., (1980) "Susceptibility testing and bioassay procedure", p.431, Academic Press, Inc., New York). […] The lowest drug concentration that yielded 3 or fewer yeasts colonies was recorded as the MFC. […]

[1] = test system: Cryptococcus neoformans H99; assay: as above; type: cell-based, C. neoformans var. neoformans; conditions: Cryptococcus neoformans, H99, read-out: MICs
From the text: as §1, with “Antifungal susceptibility testing for compounds set forth in Examples 1-20 is discussed hereinbelow. The” for “The”
as §2, with “The only difference compared to the standardized procedure was the choice of drug dilutions ranging from 100 to 0.09 μg/ml.” left out
as §6, with “p. 431,” for “p.431,”, “three” for “3”
as §6

C. albicans 102.96 = assay: as above; type: cell-based, Candida albicans; conditions: Candida albicans, 102.96, read-out: fluconazole-resistant
From the text: as §1, with “Antifungal susceptibility testing for compounds set forth in Examples 1-20 is discussed hereinbelow. The” for “The”
as §2
as §3, with “plates. The lowest drug concentration that yielded three or fewer yeasts colonies was recorded as the MFC.” for “plates.”
as §4, with “Antifungal susceptibility testing for compounds set forth in Examples 21-28 is discussed hereinbelow. The” for “The”
(§7) Minimum Fungicidal Concentration (MFC) experiments were adapted from a method by McGinnis (McGinnis, M. R., (1980) "Susceptibility testing and bioassay procedure", p.431, Academic Press, Inc., New York). Briefly, 10 μl aliquots from tubes with growth inhibition were plated onto Sabouraud agar plates. The lowest drug concentration that yielded 3 or fewer yeasts colonies was recorded as the MFC. Several drugs were also rescreened with a subculture of 100 μl aliquots from tubes with no growth and there was no change in MFC.

C. albicans 103.96 = assay: as above; type: cell-based, Candida albicans; conditions: Candida albicans, 103.96, read-out: fluconazole-resistant
From the text: as §1, with “Antifungal susceptibility testing for compounds set forth in Examples 1-20 is discussed hereinbelow. The” for “The”
as §2
as §7, with “p. 431,” for “p.431,”, “three” for “3”, “MFC.” for “MFC. Several drugs were also rescreened with a subculture of 100 μl aliquots from tubes with no growth and there was no change in MFC.”
as §4, with “Antifungal susceptibility testing for compounds set forth in Examples 21-28 is discussed hereinbelow. The” for “The”
as §7

C. neoformans 114.96 = assay: as above; type: cell-based, C. neoformans var. neoformans; conditions: Cryptococcus neoformans, read-out: fluconazole-resistant
From the text: as §1, with “Antifungal susceptibility testing for compounds set forth in Examples 1-20 is discussed hereinbelow. The” for “The”
as §2, with “The only difference compared to the standardized procedure was the choice of drug dilutions ranging from 100 to 0.09 μg/ml.” left out
as §6, with “p. 431,” for “p.431,”, “three” for “3”
as §6

C. neoformans 133.95 = assay: as above; type: cell-based, C. neoformans var. neoformans; conditions: Cryptococcus neoformans, read-out: fluconazole-resistant
Procedure: as §5
as §2, with “The only difference compared to the standardized procedure was the choice of drug dilutions ranging from 100 to 0.09 μg/ml.” left out
as §6

C. neoformans 135.95 = assay: as above; type: cell-based, C. neoformans var. neoformans; conditions: Cryptococcus neoformans, read-out: fluconazole-resistant
Procedure: as §5
as §2, with “The only difference compared to the standardized procedure was the choice of drug dilutions ranging from 100 to 0.09 μg/ml.” left out
as §6

[2] = Tables 2-7, three or fewer colonies
[3] = Table 1, three or fewer colonies

| Structure (SMILES) | MIC (Candida albicans; 35° C., reading at 48 hours) [µg/mL] | MIC (Cryptococcus neoformans; 35° C., 72 hr) [µg/mL] | MFC (Cryptococcus neoformans; [2]) [µg/mL] | MFC (Candida albicans; three or fewer colonies) [µg/mL] | further results |
| --- | --- | --- | --- | --- | --- |
| C[C@@H]1[C@H](O)[C@@H](C)/C=C/C=C/C=C/C=C/C=C/C=C/C=C/[C@H](O[C@@H]2O[C@H](C)[C@@H](O)[C@H](N)[C@@H]2O)C[C@@H]2O[C@](O)(C[C@@H](O)C[C@@H](O)[C@H](O)CC[C@@H](O)C[C@@H](O)CC(=O)O[C@H]1C)C[C@H](O)[C@H]2C(=O)O [Amphotericin, reference compound] | 1 (≈ 1.08 µM) | 1 (≈ 1.08 µM) |  |  | MIC (Candida albicans A39): 1 µg/mL (≈ 1.08 µM); MIC [1]: 1 µg/mL (≈ 1.08 µM) |
| CN(C)CCCNC(=O)c1ccc(-c2ccc(-c3ccc(C(=O)NCCCN(C)C)cc3)o2)cc1 [Compound 35] | > 100 | > 100 |  |  |  |
| CC(C)CNC(=N)c1ccc(-c2ccc(-c3ccc(C(=N)NCC(C)C)cc3)o2)cc1 [Compound 27] | 12.5 (≈ 30 µM) | 3.12 (≈ 7.49 µM) | 12.5 (≈ 30 µM) |  |  |
| N=C(N)c1ccc(NCCCNc2ccc(C(=N)N)cc2)cc1 [Compound 8] | 0.19 (≈ 0.612 µM) | 1.56 (≈ 5.03 µM) |  | 0.39 (≈ 1.26 µM) | MFC (Cryptococcus neoformans; [3]): 6.25 µg/mL (≈ 20.1 µM) |
| c1cc2nc(-c3ccc(-c4nc5ccc(C6=NCCN6)cc5[nH]4)cc3)[nH]c2cc1C1=NCCN1 [Compound 48] | 0.78 (≈ 1.75 µM) | 0.78 (≈ 1.75 µM) | 1.56 (≈ 3.49 µM) | 6.25 (≈ 14 µM) |  |
| c1cc(-c2nc3ccc(C4=NCCN4)cc3[nH]2)ccc1C1=NCCN1 [Compound 62] | 50 (≈ 151 µM) | 50 (≈ 151 µM) |  | > 100 |  |
| c1cc(C2=NCCN2)ccc1OCCCCOc1ccc(C2=NCCN2)cc1 [Compound 14] | 0.78 (≈ 2.06 µM) | 6.25 (≈ 16.5 µM) |  | 1.56 (≈ 4.12 µM) | MFC (Cryptococcus neoformans; [3]): 12.5 µg/mL (≈ 33 µM) |
| N=C(N)c1ccc(NCCCNc2ccc(C(=N)N)cc2[N+](=O)[O-])c([N+](=O)[O-])c1 [Compound 10] |  |  |  |  | MIC (Candida albicans; 48 h): 100 µg/mL (≈ 250 µM); MFC (Candida albicans): 100 µg/mL (≈ 250 µM); MIC (Cryptococcus neoformans; 72 h): 100 µg/mL (≈ 250 µM); MFC (Cryptococcus neoformans): 100 µg/mL (≈ 250 µM) |
| N=C(NC1CCCC1)c1ccc2nc(-c3ccc(-c4ccc(-c5ccc(-c6nc7ccc(C(=N)NC8CCCC8)cc7[nH]6)cc5)o4)cc3)[nH]c2c1 [Compound 54, 4,4'-Bis[2-(5-N-cyclopentylamidino)benzimidazoyl]-2,5-diphenylfuran hydrochloride] | 1.56 | 1.56 | 6.25 | 1.56 |  |
| N=C(N)c1ccc(OCCOc2ccc(C(=N)N)cc2)cc1 [Compound 1] | 3.12 (≈ 10.5 µM) | > 100 |  | 100 (≈ 335 µM) |  |
| N=C(N)c1ccc(OCCC(O)CCOc2ccc(C(=N)N)cc2)cc1 (stereo not drawn) [Compound 22] | 12.5 (≈ 35.1 µM) | 12.5 (≈ 35.1 µM) | 12.5 (≈ 35.1 µM) | 12.5 (≈ 35.1 µM) |  |
| N=C(N)c1ccc(OCCCCOc2ccc(C(=N)N)cc2N)c(N)c1 [Compound 13] | 6.25 (≈ 17.5 µM) | 12.5 (≈ 35.1 µM) |  |  | MFC (Cryptococcus neoformans; [3]): 50 µg/mL (≈ 140 µM) |
| NC(=NO)c1ccc(OCCCOc2ccc(C(N)=NO)cc2)cc1 [Compound 5] | > 100 | > 100 |  |  |  |
| N=C(N)c1ccc2nc(-c3ccc(-c4nc5ccc(C(=N)N)cc5[nH]4)cc3)[nH]c2c1 [Compound 47] | > 100 | 0.39 (≈ 0.989 µM) | 0.39 (≈ 0.989 µM) |  |  |
| COc1cc(C(=N)N)ccc1OCCCCOc1ccc(C(=N)N)cc1OC [Compound 12] | > 100 | 50 (≈ 129 µM) |  | > 100 | MFC (Cryptococcus neoformans; [3]): > 100 µg/mL |
| Cc1cc(-c2nc3ccc(C(=N)N)cc3[nH]2)c(C)cc1-c1nc2ccc(C(=N)N)cc2[nH]1 [Compound 50] | 25 (≈ 59.2 µM) | 25 (≈ 59.2 µM) | 25 (≈ 59.2 µM) | 100 (≈ 237 µM) |  |
| OC(Cn1cncn1)(Cn1cncn1)c1ccc(F)cc1F [Fluconazole, reference compound] |  |  |  |  | MIC (Candida albicans; 48 h): 0.25 µg/mL (≈ 0.816 µM); MIC80 (Minimum inhibitory concentration 80%) (Cryptococcus neoformans; 35° C., 72 hr): 2.0 µg/mL (≈ 6.53 µM); MIC (Cryptococcus neoformans; 72 h): 2 µg/mL (≈ 6.53 µM); MIC (Candida albicans A39): 0.25 µg/mL (≈ 0.816 µM); MIC (C. albicans 102.96): > 64 µg/mL; MIC (C. albicans 103.96): > 64 µg/mL; MIC (C. neoformans 114.96): > 64 µg/mL; MIC (C. neoformans 133.95): > 64 µg/mL; MIC (C. neoformans 135.95): > 64 µg/mL |
| N=C(N)c1ccc2nc(Cc3nc4ccc(C(=N)N)cc4[nH]3)[nH]c2c1 [Compound 28] |  |  |  |  | MIC (Candida albicans; 48 h): > 100 µg/mL; MIC (Cryptococcus neoformans; 72 h): > 100 µg/mL |
